From patent US7253286B2, “Nitrogen-containing aromatic derivatives” (Eisai Co., Ltd, priority 2000, dated 2007) come the findings set out here.

The test relates to Human Umbilical Vein Endothelial Cells (HUVECs). The test can be described thus: Inhibition against sandwich tube formation by vascular endothelial cells in response to stimulation by VEGF. The conditions noted are these: HUVEC in collagen gel sandwich, stimulation by VEGF (25 ng/ml VEGF and 10 ng/ml EGF), 4th day, total tube length, read-out: IC50 (concentration required for 50% inhibition of tube formation). In kind it is cell-based. On the procedure: Inhibition Against Sandwich Tube Formation by Vascular Endothelial Cells in Response to Stimulation by Angiogenic Factor
Human Umbilical Vein Endothelial Cells (HUVECS) were isolated by the same method as in Pharmacological Test Example 1, and were cultured in a 5% CO2 incubator (37° C.) using EGM-2 medium (purchased from Clonetics Corp.) until the cells reached confluency.
An ice-cooled mixture of collagen: 5× RPMI 1640: reconstitution buffer (all purchased from Nitta Gelatin, Inc.) at 7:2:1 was dispensed at 0.4 ml into each well of a 24-well plate, and then stationed for 40 minutes in a 5% CO2 incubator (37° C.) for gelling. The HUVECs were recovered using trypsin-EDTA and then suspended in human endothelial serum free medium (SFM, purchased from GIBCO BRL) containing added angiogenic factors [20 ng/ml FGF2 (purchased from GIBCO BRL) and 10 ng/ml EGF (purchased from GIBCO BRL), or 25 ng/ml VEGF (purchased from Wako Pure Chemical Industries Co., Ltd.) and 10 ng/ml EGF, or 30 ng/ml HGF (purchased from R&D Co.) and 10 ng/ml EGF], and the cell suspension was added at 0.4 ml to each well (with the cell counts differing slightly according to the HUVEC lot), and cultured overnight in a 5% CO2 incubator (37° C.). On the following day, the medium on the upper layer was aspirated off, and then 0.4 ml of an ice-cooled mixture of collagen: 5× RPMI 1640: reconstitution buffer (all purchased from Nitta Gelatin, Inc.) at 7:2:1 was superposed into each well prior to stationing for 4 hours in a 5% CO2 incubator (37° C.) for gelling. After adding 1.5 ml of an SFM solution containing each of the aforementioned angiogenic factors and a diluted test substance onto the upper layer, culturing was performed in a 5% CO2 incubator (37° C.). Upon aspirating off the culture supernatant in each well on the 4th day after addition of the test substance, 0.4 ml of a 3.3 mg/ml MTT solution dissolved in PBS (purchased from Sigma Corp.) was added to each well and culturing was performed for approximately 2 hours in a 5% CO2 incubator (37° C.). The tubes formed in the collagen gel of each well were stained by the MTT, the tube images were loaded into a computer (Macintosh), and the total length of the tubes was determined by image analysis software “MacScope” (purchased from Mitani Corp.). The ratio of the total length of the tubes formed in the well containing the test substance with respect to the total length of the tubes formed in the well containing no test substance was expressed as a percentage, and the concentration of each test substance required for 50% inhibition of tube formation (IC50) was determined from the ratio value.
Consider `COCCOc1cc2nccc(Oc3ccc(NC(=O)Nc4nccs4)cc3)c2cc1C#N` [Example 12, N-(4-(6-cyano-7-(2-methoxyethoxy)-4-quinolyl)oxyphenyl)-N′-(1,3-thiazol-2-yl)urea], for which the IC50 was found to be 44 nM.

Consider `COCCOc1cc2nccc(Oc3ccc(NC(=O)Nc4cccc(C#N)c4)cc3)c2cc1C#N` [Example 19, N-(4-(6-Cyano-7-(2-methoxyethoxy)-4-quinolyl)oxyphenyl)-N′-(3-cyanophenyl)urea], for which the IC50 came out at 28 nM.

Take `COCCOc1cc2nccc(Oc3ccc(NC(=O)NC4CC4)cc3)c2cc1C#N` [Example 23, N-(4-(6-cyano-7-(2-methoxyethoxy)-4-quinolyl)oxyphenyl)-N′-cyclopropylurea]: the IC50 amounted to 100 nM.

For the compound `CS(=O)(=O)CCOc1cc2nccc(Oc3ccc(NC(=O)Nc4ccc(F)cc4)cc3)c2cc1C#N` [Example 59, N-(4-(6-Cyano-7-(2-(methylsulfonyl)ethoxy)-4-quinolyl)oxyphenyl)-N′-(4-fluorophenyl)urea], the IC50 was found to be 170 nM.

Turning to `COC(=O)CCCOc1cc2nccc(Oc3ccc(NC(=O)Nc4ccc(OC)cc4)cc3)c2cc1C#N` [Example 70, N-(4-(6-Cyano-7-(3-methoxycarbonylpropoxy)-4-quinolyl)oxyphenyl)-N′-(4-methoxyphenyl)urea], the IC50 was 58 nM.

Turning to `CS(=O)(=O)CCCOc1cc2nccc(Oc3ccc(NC(=O)Nc4ccc(F)cc4)cc3)c2cc1C#N` [Example 108, N-(4-(6-Cyano-7-(3-(methylsulfonyl)propoxy)-4-quinolyloxy)phenyl)-N′-(4-fluorophenyl)urea], the IC50 stood at 4.9 nM.

Regarding `CN1CCCC(COc2cc3nccc(Oc4ccc(NC(=O)Nc5ccc(F)cc5)c(F)c4)c3cc2C#N)C1` (stereo not shown) [Example 127, N-(4-(6-Cyano-7-((1-methylpiperidin-3-yl)methoxy)-4-quinolyl)oxy-2-fluorophenyl)-N′-(4-fluorophenyl)urea], the IC50 came out at 7.5 nM.

In the case of `COc1cc2nccc(Oc3ccc(NC(=O)Nc4ccccc4)cn3)c2cc1OC` [Example 129, N-6-((6,7-Dimethoxy-4-quinolyl)oxy)-3-pyridyl-N′-phenylurea], the IC50 was determined as 40 nM.

As to `N#Cc1cc2c(Oc3ccc(NC(=O)Nc4ccc(F)cc4)c(F)c3)ccnc2cc1OCCCC(=O)NC1CC1` [Example 137, N-(4-(6-Cyano-7-(3-((cyclopropylamino)carbonyl)propoxy)-4-quinolyl)oxy-2-fluorophenyl)-N′-(4-fluorophenyl)urea], the IC50 came to 10 nM.

Turning to `O=C(Nc1ccc(Oc2ncnc3[nH]c(-c4ccc(OCCCN5CCCC5)cc4)cc23)cc1Cl)NC1CC1` [Example 155], the IC50 worked out at 1.4 nM.

For `CCN(CC)C[C@@H](O)COc1ccc(-c2cc3c(Oc4ccc(NC(=O)NC5CC5)c(Cl)c4)ncnc3[nH]2)cc1` [Example 157], the IC50 amounted to 0.9 nM.

With `C#Cc1c(Oc2ccc(NC(=O)Nc3ccc(F)cc3)cc2)ccnc1N(C(=O)C1CC1)C(=O)C1CC1` [Example 186, N1-Cyclopropylcarbonyl-N1-[3-(1-ethynyl)-4-(4-{[(4-fluoroanilino)carbonyl]amino}phenoxy)-2-pyridyl]-1-cyclopropanecarboxamide], the IC50 was 23 nM.

As for `O=C(Nc1cc(Oc2ccc3c(ccn3C(=O)Nc3ccccc3)c2)ccn1)C1CCN(CC2CC2)CC1` [Example 198, N1-Phenyl-5-{[2-({[(1-cyclopropylmethyl)-4-piperidyl]carbonyl}amino)-4-pyridyl]oxy}-1H-1-indolecarboxamide], the IC50 was 1.5 nM.

In the case of `CN1CCC(C(=O)Nc2cc(Oc3ccc(NC(=O)Nc4ccc(F)cc4)c(Cl)c3)ccn2)CC1` [Example 202, N4-[4-(3-Chloro-4-{[(4-fluoroanilino)carbonyl]amino}phenoxy)-2-pyridyl]-1-methyl-4-piperidinecarboxamide], the IC50 is 15 nM.

As to `CN1CCC(CC(=O)Nc2cc(Oc3ccc4c(ccn4C(=O)Nc4ccccc4)c3)ccn2)CC1` [Example 204, N1-Phenyl-5-[(2-{[2-(1-methyl-4-piperidyl)acetyl]amino}-4-pyridyl)oxy]-1H-1-indolecarboxamide], the IC50 was 0.9 nM.

On to `O=C(C1CC1)N(C(=O)C1CC1)c1cc(Oc2ccc3c(ccn3C(=O)NC3CC3)c2)ccn1` [Example 211, N1-Cyclopropyl-5-({2-[di(cyclopropylcarbonyl)amino]-4-pyridyl}oxy)-1H-1-indolecarboxamide], for which the IC50 was 0.3 nM.

For `O=C(Nc1cc(Oc2ccc3c(ccn3C(=O)NCCF)c2)ccn1)C1CC1` [Example 215, N1-(2-Fluoroethyl)-5-({2-[(cyclopropylcarbonyl)amino]-4-pyridyl}oxy)-1H-1-indolecarboxyamide], the IC50 came out at 22 nM.

As to `COc1cc2nccc(Oc3ccc(NC(=O)Nc4nccs4)nc3)c2cc1OC` [Example 224, N-(5-(6,7-Dimethoxyquinolin-4-yloxy)pyridin-2-yl)-N′-(thiazol-2-yl)urea], the IC50 was determined as 26 nM.

Regarding `COCCNC(=O)c1cc2c(Oc3ccc(NC(=O)NC4CC4)c(Cl)c3)ccnc2cc1OCCOC` [Example 249, N6-(2-Methoxyethyl)-4-(3-chloro-4-{[(cyclopropylamino)carbonyl]amino}phenoxy)-7-(2-methoxyethoxy)-6-quinolinecarboxamide], the IC50 worked out at 1.6 nM.

As for `COCCOc1cc2nccc(Sc3ccc(NC(=O)Nc4ccccc4F)s3)c2cc1C#N` [Example 256, 1-{5-[6-Cyano-7-(2-methoxyethoxy)quinolin-4-ylsulfanyl]thiophen-2-yl}-3-(2-fluorophenyl)urea], the IC50 was determined as 36 nM.

Turning to `N#Cc1cc2c(Oc3ccc4c(ccn4C(=O)Nc4nccs4)c3)ccnc2cc1OCCCN1CCCC1` [Example 289, 5-[6-Cyano-7-(3-(pyrrolidin-1-yl)propoxy)quinolin-4-yloxy]indole-1-carboxylic acid (thiazol-2-yl)amide], the IC50 was 4.6 nM.

Regarding `CCN(CC)CCCOc1cc2nccc(Oc3ccc4[nH]ccc4c3)c2cc1C#N` [Example 296, 7-(3-Diethylaminopropoxy)-4-(1H-indol-5-yloxy)quinoline-6-carbonitrile], the IC50 is 34 nM.

As for `CCNC(=O)n1ccc2cc(Oc3ccnc4cc(OCCCN5CCCC5)c(C#N)cc34)ccc21` [Example 299, 5-[6-Cyano-7-(3-(pyrrolidin-1-yl)propoxy)quinolin-4-yloxy]indole-1-carboxylic acid ethylamide], the IC50 came to 1 nM.

On to `CCN(CC)CCCOc1cc2nccc(Oc3ccc4c(ccn4C(=O)Nc4nccs4)c3)c2cc1C#N` [Example 300, 5-[6-Cyano-7-(3 diethylaminopropoxy)quinolin-4-yloxy]indole-1-carboxylic acid (thiazol-2-yl)amide], for which the IC50 amounted to 7.5 nM.

On to `CCNC(=O)n1ccc2cc(Oc3ccnc4cc(OCC5CCN(C)CC5)c(C#N)cc34)ccc21` [Example 304, 6-Cyano-4-(1-ethylcarbamoylindol-5-yloxy)-7-[(1-methylpiperidin-4-yl)methyloxy]quinoline], for which the IC50 amounted to 0.3 nM.

For `CN1CCC(COc2cc3nccc(Oc4ccc5c(ccn5C(=O)Nc5nccs5)c4)c3cc2C#N)CC1` [Example 308], the IC50 stood at 5.2 nM.

As to `COc1cc2nccc(Oc3ccc4c(ccn4C(=O)NC(C)C)c3)c2cc1C(N)=O` [Example 320, 6-Carbamoyl-7-methoxy-4-[1-(1-methyl)ethylcarbamoyl-1H-indol-5-yloxy]quinoline], the IC50 was 2.5 nM.

In the case of `COc1cc2nccc(Oc3ccc4c(ccn4C(=O)NCCCCl)c3)c2cc1C(N)=O` [Example 325, 6-Carbamoyl-4-[1-(3-chloropropylcarbamoyl)1H-indol-5-yloxy]-7-methoxyquinoline], the IC50 amounted to 1 nM.

As for `CCOCCCNC(=O)n1ccc2cc(Oc3ccnc4cc(OC)c(C(N)=O)cc34)ccc21` [Example 326, 6-Carbamoyl-4-[1-(3-ethoxypropylcarbamoyl)1H-indol-5-yloxy]-7-methoxyquinoline], the IC50 amounted to 1 nM.

`CCN(CC)CCCNC(=O)n1ccc2cc(Oc3ccnc4cc(OC)c(C(N)=O)cc34)ccc21` [Example 327, 6-Carbamoyl-4-[1-(3-diethylaminopropylcarbamoyl)1H-indol-5-yloxy]-7-methoxyquinoline]: the IC50 stood at 56 nM.

As for `CCN(CC)CCCOc1cc2nccc(Oc3ccc(NC(=O)NC4CC4)c(F)c3)c2cc1C(N)=O` [Example 372, 4-(4-(Cyclopropylaminocarbonyl)amino-3-fluorophenoxy)-7-(3-(N,N-diethylamino)propoxy)-6-quinolinecarboxamide], the IC50 came out at 44 nM.
